These results are taken from patent publication US12662491B2 (Redona Therapeutics, Inc., priority 2020, dated 2026).

The term IC50 denotes the concentration needed to halve the response being measured.

The structures appear in SMILES notation. Some results are limits rather than exact numbers.

One assay deals with T1, Zcchc11 enzyme (Homo sapiens, UniProt Q5TAX3).
T1 construct: made in house; host or cells: HEK293 cells (Zcchc11); E. coli Rosetta II (LIN28A)
T1 sequence (Q5TAX3 212-1420): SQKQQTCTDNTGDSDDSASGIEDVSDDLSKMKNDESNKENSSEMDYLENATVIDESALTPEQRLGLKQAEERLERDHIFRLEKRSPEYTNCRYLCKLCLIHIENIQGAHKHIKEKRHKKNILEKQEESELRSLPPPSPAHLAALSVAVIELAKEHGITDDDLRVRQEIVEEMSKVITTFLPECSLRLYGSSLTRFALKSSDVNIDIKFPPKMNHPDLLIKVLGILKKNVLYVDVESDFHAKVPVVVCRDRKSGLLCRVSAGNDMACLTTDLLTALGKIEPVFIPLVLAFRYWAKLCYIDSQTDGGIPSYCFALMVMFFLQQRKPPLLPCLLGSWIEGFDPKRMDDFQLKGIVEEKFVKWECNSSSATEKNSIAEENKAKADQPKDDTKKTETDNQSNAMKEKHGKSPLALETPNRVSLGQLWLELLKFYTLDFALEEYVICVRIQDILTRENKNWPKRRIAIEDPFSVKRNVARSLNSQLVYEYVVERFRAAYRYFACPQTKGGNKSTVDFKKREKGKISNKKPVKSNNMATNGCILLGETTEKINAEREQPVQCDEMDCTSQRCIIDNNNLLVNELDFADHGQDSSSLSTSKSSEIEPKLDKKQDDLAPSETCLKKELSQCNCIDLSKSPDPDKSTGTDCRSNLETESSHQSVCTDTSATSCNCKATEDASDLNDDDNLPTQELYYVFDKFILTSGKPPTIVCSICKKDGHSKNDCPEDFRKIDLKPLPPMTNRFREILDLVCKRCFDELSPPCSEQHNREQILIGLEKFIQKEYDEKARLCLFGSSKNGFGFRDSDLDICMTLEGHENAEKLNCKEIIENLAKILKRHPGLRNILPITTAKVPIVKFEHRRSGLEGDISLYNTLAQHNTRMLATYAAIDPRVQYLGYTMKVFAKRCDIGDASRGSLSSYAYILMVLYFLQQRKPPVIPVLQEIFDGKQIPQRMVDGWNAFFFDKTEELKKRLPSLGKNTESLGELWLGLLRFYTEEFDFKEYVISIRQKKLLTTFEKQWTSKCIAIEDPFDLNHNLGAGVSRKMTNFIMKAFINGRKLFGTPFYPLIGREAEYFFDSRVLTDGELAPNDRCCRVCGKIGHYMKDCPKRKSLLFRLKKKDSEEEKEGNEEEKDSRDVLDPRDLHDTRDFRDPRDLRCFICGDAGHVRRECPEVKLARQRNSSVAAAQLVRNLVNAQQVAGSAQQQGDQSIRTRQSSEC
The experiment in a line: TUTase assay (Zcchc11 assay, Lin28a-dependent polyuridylation of pre-let-7). The class given is biochemical. To be noted: LIN28A 10 nM, Zcchc11 0.2 nM, 5′-fluorescein pre-let-7 miRNA 2 nM, UTP 5 uM, room temperature, 30 minutes pre-incubation; read-out: Potency Lin28a-dep Z11 IC50. An outline of the steps: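 Human Zcchc11 residues 212-1420 (HEK293-expressed, MBP tag cleaved, C-terminal FLAG) at 0.2 nM, with 10 nM full-length human LIN28A and 2 nM 5′-fluorescein pre-let-7, preincubated with compound 30 min at room temperature. Reaction started with 5 uM UTP plus 4 nM 3′-rhodamine A20 quench probe; fluorescein loss read kinetically, IC50 from initial rates.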
Consider `C[C@H]1CCN(c2cc3c(cc2Cl)c(=O)c(C(=O)O)cn3-c2ccc(N3CC(N(C)C)C3)nc2)[C@H]1COc1ncccc1Cl` (racemic) [Example 44, rac-6-chloro-7-((2R,3S)-2-(((3-chloropyridin-2-yl)oxy)methyl)-3-methylpyrrolidin-1-yl)-1-(6-(3-(dimethylamino)azetidin-1-yl)pyridin-3-yl)-4-oxo-1,4-dihydroquinoline-3-carboxylic acid], for which the IC50 was no more than 1000 nM.

Still in this assay, the particulars now being: Lin28a-dependent Zcchc11 (Z11) TUTase activity; read-out: Potency Lin28a-dep Z11 IC50.
In the case of `CN(C)C1CN(c2ccc(-n3cc(C(=O)O)c(=O)c4cc(F)c(N5CC(c6cccnc6)C[C@@H]5COc5ncccc5Cl)cc43)cn2)C1` (single isomer, unassigned) [Compound 328], the IC50 is no more than 1000 nM. With `CN(C)C1CN(c2ccc(-n3cc(C(=O)O)c(=O)c4cc(F)c(N5C[C@@H](c6cccnc6)C[C@@H]5COc5ncccc5Cl)cc43)cn2)C1` (single isomer, unassigned) [Compound 329], the IC50 was no more than 1000 nM. On to `O=C(O)c1cn(C2CC2)c2c(F)c(N3CCC[C@@H]3COc3ccccn3)c(F)cc2c1=O` [Compound 79, (R)-1-cyclopropyl-6,8-difluoro-4-oxo-7-(2-((pyridin-2-yloxy)methyl)pyrrolidin-1-yl)-1,4-dihydro-quinoline-3-carboxylic acid], for which the IC50 lay in the range of 1000 to 10000 nM. For the molecule `O=C(O)c1cn(-c2ccc(O)cc2F)c2c(F)c(N3CCC[C@@H]3COc3ccccn3)c(F)cc2c1=O` [Compound 80, (R)-6,8-difluoro-1-(2-fluoro-4-hydroxy-phenyl)-4-oxo-7-(2-((pyridin-2-yloxy)methyl)pyrrolidin-1-yl)-1,4-dihydro-quinoline-3-carboxylic acid], the IC50 was in the range of 1000 to 10000 nM. Same read-out and setting: under `O=C(O)c1cn(C2CC2)c2cc(N3CCC[C@H]3COc3ccccn3)c(F)cc2c1=O` [Compound 81, (S)-1-cyclopropyl-6-fluoro-4-oxo-7-(2-((pyridin-2-yloxy)methyl)pyrrolidin-1-yl)-1,4-dihydro-quinoline-3-carboxylic acid] stands 10000 to 50000 nM. On the same count and under the same terms, the same measure for `O=C(O)c1cn(-c2ccc(O)cc2F)c2c(F)c(N3CCC[C@H]3COc3ccccn3)c(F)cc2c1=O` [Compound 82, (S)-6,8-difluoro-1-(2-fluoro-4-hydroxy-phenyl)-4-oxo-7-(2-((pyridin-2-yloxy)methyl)pyrrolidin-1-yl)-1,4-dihydro-quinoline-3-carboxylic acid]: 10000 to 50000 nM. As for `O=C(O)c1cn(-c2ccc(O)cc2F)c2cc(N3CCC[C@@H]3COc3ccccn3)c(F)cc2c1=O` [Compound 83, (R)-6-fluoro-1-(2-fluoro-4-hydroxy-phenyl)-4-oxo-7-(2-((pyridin-2-yloxy)methyl)pyrrolidin-1-yl)-1,4-dihydro-quinoline-3-carboxylic acid], the IC50 is no more than 1000 nM.

As to `O=C(O)c1cn(-c2ccc(F)cc2F)c2cc(N3CCC[C@@H]3COc3ccccn3)c(F)cc2c1=O` [Compound 84, (R)-1-(2,4-difluorophenyl)-6-fluoro-4-oxo-7-(2-((pyridin-2-yloxy)methyl)pyrrolidin-1-yl)-1,4-dihydro-quinoline-3-carboxylic acid], the IC50 is no more than 1000 nM. Same read-out and setting: the same measure for `O=C(O)c1cn(-c2ccccc2)c2cc(N3CCC[C@@H]3COc3ccccn3)c(F)cc2c1=O` [Compound 85, (R)-6-fluoro-4-oxo-1-phenyl-7-(2-((pyridin-2-yloxy)methyl)pyrrolidin-1-yl)-1,4-dihydro-quinoline-3-carboxylic acid]: no more than 1000 nM; for `O=C(O)c1cn(-c2ccccc2)c2c(F)c(N3CCC[C@@H]3COc3ccccn3)c(F)cc2c1=O` [Compound 86, (R)-6,8-difluoro-4-oxo-1-phenyl-7-(2-((pyridin-2-yloxy)methyl)pyrrolidin-1-yl)-1,4-dihydro-quinoline-3-carboxylic acid]: no more than 1000 nM; for `O=C(O)c1cn(C2CC2)c2cc(N3CCC[C@@H]3COc3ccccn3)c(F)cc2c1=O` [Compound 87, (R)-1-cyclopropyl-6-fluoro-4-oxo-7-(2-((pyridin-2-yloxy)methyl)pyrrolidin-1-yl)-1,4-dihydro-quinoline-3-carboxylic acid]: 1000 to 10000 nM.

Regarding `O=C(O)c1cn(-c2ncc(O)cn2)c2cc(N3CCC[C@@H]3COc3ccccn3)c(F)cc2c1=O` [Compound 88, (R)-6-fluoro-1-(5-hydroxy-pyrimidin-2-yl)-4-oxo-7-(2-((pyridin-2-yloxy)methyl)pyrrolidin-1-yl)-1,4-dihydro-quinoline-3-carboxylic acid], the IC50 fell in the range of 1000 to 10000 nM. `O=C(O)c1cn(-c2ccc(O)cc2F)c2cc(N3CCC[C@@H]3COc3cnccn3)c(F)cc2c1=O` [Compound 89, (R)-6-fluoro-1-(2-fluoro-4-hydroxy-phenyl)-4-oxo-7-(2-((pyrazin-2-yloxy)methyl)pyrrolidin-1-yl)-1,4-dihydro-quinoline-3-carboxylic acid]: the IC50 was in the range of 10000 to 50000 nM. With `O=C(O)c1cn(-c2ccc(O)cc2F)c2cc(N3CCC[C@@H]3COc3ccccc3)c(F)cc2c1=O` [Compound 90, (R)-6-fluoro-1-(2-fluoro-4-hydroxy-phenyl)-4-oxo-7-(2-(phenoxy-methyl)pyrrolidin-1-yl)-1,4-dihydro-quinoline-3-carboxylic acid], the IC50 is greater than 50000 nM. On to `O=C(O)c1cn(C2CC2)c2c(Cl)c(N3CCC[C@@H]3COc3ccccn3)c(F)cc2c1=O` [Compound 91, (R)-8-chloro-1-cyclopropyl-6-fluoro-4-oxo-7-(2-((pyridin-2-yloxy)methyl)pyrrolidin-1-yl)-1,4-dihydro-quinoline-3-carboxylic acid], for which the IC50 lay within 10000 to 50000 nM.

With `Cc1cccc(OC[C@H]2CCCN2c2cc3c(cc2F)c(=O)c(C(=O)O)cn3-c2ccccc2)n1` [Compound 92, (R)-6-fluoro-7-(2-(((6-methyl-pyridin-2-yl)oxy)methyl)pyrrolidin-1-yl)-4-oxo-1-phenyl-1,4-dihydro-quinoline-3-carboxylic acid], the IC50 was no more than 1000 nM. Consider `Cc1ccc(OC[C@H]2CCCN2c2cc3c(cc2F)c(=O)c(C(=O)O)cn3-c2ccccc2)nc1` [Compound 93, (R)-6-fluoro-7-(2-(((5-methyl-pyridin-2-yl)oxy)methyl)pyrrolidin-1-yl)-4-oxo-1-phenyl-1,4-dihydro-quinoline-3-carboxylic acid], for which the IC50 was no more than 1000 nM.

As for `Cc1ccnc(OC[C@H]2CCCN2c2cc3c(cc2F)c(=O)c(C(=O)O)cn3-c2ccccc2)c1` [Compound 94, (R)-6-fluoro-7-(2-(((4-methyl-pyridin-2-yl)oxy)methyl)pyrrolidin-1-yl)-4-oxo-1-phenyl-1,4-dihydro-quinoline-3-carboxylic acid], the IC50 was no more than 1000 nM.

Regarding `O=C(O)c1cn(-c2ccc(O)cc2F)c2cc(N3CCC[C@@H]3COc3ccccn3)c(Cl)cc2c1=O` [Compound 95, (R)-6-chloro-1-(2-fluoro-4-hydroxy-phenyl)-4-oxo-7-(2-((pyridin-2-yloxy)methyl)pyrrolidin-1-yl)-1,4-dihydro-quinoline-3-carboxylic acid], the IC50 is no more than 1000 nM. For the molecule `O=C(O)c1cn(C2CC2)c2cc(N3CCC[C@@H]3COc3ccccc3)c(F)cc2c1=O` [Compound 96, (R)-1-cyclopropyl-6-fluoro-4-oxo-7-(2-(phenoxy-methyl)pyrrolidin-1-yl)-1,4-dihydro-quinoline-3-carboxylic acid], the IC50 was greater than 50000 nM. `O=C(O)c1cn(-c2ccccc2)c2cc(N3CCC[C@@H]3COc3ncccc3Cl)c(F)cc2c1=O` [Compound 97, (R)-7-(2-(((3-chloro-pyridin-2-yl)oxy)methyl)pyrrolidin-1-yl)-6-fluoro-4-oxo-1-phenyl-1,4-dihydro-quinoline-3-carboxylic acid]: the IC50 was no more than 1000 nM. As for `O=C(O)c1cn(-c2ccccc2)c2cc(N3CCC[C@@H]3COc3ncccc3F)c(F)cc2c1=O` [Compound 98, (R)-6-fluoro-7-(2-(((3-fluoropyridin-2-yl)oxy)methyl)pyrrolidin-1-yl)-4-oxo-1-phenyl-1,4-dihydro-quinoline-3-carboxylic acid], the IC50 is no more than 1000 nM.
